Molecules are shown by their SMILES.

The source of these data is patent publication US20130012483A1, “NOVEL PHARMACEUTICAL COMPOSITION FOR THE TREATMENT OF NEURODEGENERATIVE OR NEUROVASCULAR DISEASES” (priority 2010, published 2013).

This assay relates to elderly patients suffering from Alzheimer disease or related disorders (ADRD). The assay is described as follows: Before-after clinical study: change in global cognitive performance by Mini-Mental State Examination (MMSE). The assay is classed as in vivo, human. The settings on record: for Change in MMSE score, mean ± SD (MMSE score after treatment − MMSE score before treatment): between-visits change, oral treatment; for MMSE score (/30 points), mean ± SD after treatment: first follow-up visit, oral vitamin D3 800-3500 IU per day and/or memantine 5-20 mg per day, mean time between visits 0.6±0.4 years. The method, then:
Based on a before-after designed study, we compared the change in global cognitive performance using the Mini-Mental State Examination (MMSE) among elderly patients suffering from Alzheimer disease or related disorders (ADRD).
Three different treatments were administered to these patients: • vitamin D3 alone, • memantine alone, • vitamin D3 in combination with memantine.
All patients suffering from ADRD who were prescribed memantine and/or vitamin D3 with no cerebral vasodilatators and no anticholinesterasics (i.e., donepezil, galantamine or rivastigmine) at the University Memory Center of Angers University Hospital, France and who had at least one follow-up visit, were enrolled in this study.
The MMSE score was used to assess global cognitive performance during the study and was completed at baseline (i.e., before the drug prescription) and during the first follow-up visit. MMSE is a well-established measure of cognitive function in elderly people (see for example Folstein M F, Folstein S E, et al., Mini-Mental State: A practical method for grading the cognitive state of patients for the clinician; Journal of Psychiatric Research 1975; 12: 189-198; or Kalafat L, Hugonot-Diener L, Poitrenaud J., Standardisation et étalonnage français du<<Mini Mental State>>version Greco; Neuropsychol Rev 2003; 13: 209-236). It is a brief, practical screening test for cognitive dysfunction composed of five sections (orientation, registration, attention—calculation, recall, and language). […] Scores range from 30 (unimpaired) to 0 (impaired). The change in MMSE score was used to assess the change in cognitive performance after the introduction of the drug(s).
Subjects were prescribed either vitamin D3 alone, memantine alone, or Vitamin D3 in combination with memantine.
Vitamin D3 was administered orally either daily or monthly. Dosage of vitamin D3 ranges between 800 and 3500 IU per day.
Memantine was administered orally every day at once. Dosage ranges from 5 to 20 mg per day.
Age, gender, the MMSE score at baseline assessment as well as the time between two visits expressed in years (corresponding to the duration of treatment) were used as co-variables.
The subjects' baseline characteristics were summarized using means and standard deviations or frequencies and percentages, as appropriate. First, comparisons between subjects separated into three groups corresponding to the three treatments administered (i.e., vitamin D3 alone, memantine alone and Vitamin D3 in combination with memantine) were performed using the Chi-square test or the Kruskal-Wallis test, as appropriate. To address the problem of multiple comparisons, analyses were completed by a post hoc Bonferonni test.
Second, multiple linear regression analyses (i.e., fully adjusted method) were performed to examine the association between the change in MMSE score (dependent variable) and the use of vitamin D3 in combination with memantine (independent variable), after adjustment for clinical characteristics.
Three models were performed: • first, we examined the between-visits change in MMSE score taking as reference group the subjects using vitamin D3 alone; • second, we performed the same analysis taking as reference group the subjects using memantine alone; and • third, taking as reference group the subjects using vitamin D3 or memantine.

As to `CC12CC3CC(C)(C1)CC(N)(C3)C2` [M., 3,5-dimethyltricyclo[3.3.1.1]decylamine], the “Change in MMSE score, mean ± SD (MMSE score after treatment − MMSE score before treatment)” value (“Change in MMSE score, mean ± SD” below) is listed as −0.0 ± 1.8 points and the “MMSE score (/30 points), mean ± SD after treatment” value was 16.1 ± 5.1 points. Besides, the “Change in MMSE score, mean ± SD” value (listed as memantine) is listed as 0.0±1.8 points.

Regarding `C=C1CC[C@H](O)C/C1=C/C=C1\CCC[C@]2(C)[C@@H]([C@H](C)CCCC(C)C)CC[C@@H]12` [V. D3, cholecalciferol], the “Change in MMSE score, mean ± SD” value is on record as −0.6 ± 3.1 points and the “MMSE score (/30 points), mean ± SD after treatment” value turned out to be 17.7 ± 6.5 points. Moreover, where the note is “between visits, printed as a loss”, the “points lost in MMSE score on average” value was found to be 0.6±3.1 points.
